These results are taken from US20050197350A1, “Novel quinoline, tetrahydroquinazoline, and pyrimidine derivatives and methods of treatment related to the use thereof” (TAISHO PHARMACEUTICAL CO., LTD., priority 2003, published 2005).

Read-outs that look alike come from different tables or passages of the source.

For the experiment, the system named is MCH receptors. As to the kind of experiment: MCH receptor activity class (method not given).
Setting [1] is: class by percent of control at 10^-7 M or IC50.
[2] abbreviates: class by percent of control at 10^−7 M or IC50.
Setting [3] is: class 1-3 by percent of control at 10^-7 M or IC50.
Setting [4] is: MCH receptor, class by percent of control at 10^-7 M or IC50.

As to `COc1cc(CN[C@H]2CC[C@@H](Nc3nccc(N(C)C)n3)CC2)cc(OC)c1OC` [compound 1219, N4,N4-dimethyl-N2-{cis-4-[(3,4,5-trimethoxybenzyl)amino]cyclohexcyl}pyrimidine-2,4-diamine], under setting [1], the class is given as 3 (Class 3 The value of percent of control at 10^−7 M was more than 60% or the value of IC50 was more than 200 nM.).

Take `Cc1cnc(N[C@H]2CC[C@@H](NC(=O)c3ccc(F)c(F)c3F)CC2)nc1N(C)C` [compound 2903, N-(cis-4-{[4-(dimethylamino)-5-methylpyrimidin-2-yl]amino}cyclohexyl)-2,3,4-trifluorobenzamide]: the class under setting [2] is listed as 1 (Class 1: The value of percent of control at 10^−7 M was less than 40% or the value of IC50 was less than 50 nM.). On the same count and under the same terms, next, `Cc1cc(N(C)C)nc(N[C@H]2CC[C@@H](C(=O)N[C@@H](C)c3ccc(Cl)cc3)CC2)n1` [compound 2797, cis-N-[(1S)-1-(4-chlorophenyl)ethyl]-4-{[4-(dimethylamino)-6-methylpyrimidin-2-yl]amino}cyclohexanecarboxamide]: 1 (Class 1: The value of percent of control at 10^−7 M was less than 40% or the value of IC50 was less than 50 nM.).

As for `Cc1onc(-c2c(F)cccc2Cl)c1C(=O)N[C@H]1CC[C@@H](Nc2nc3c(c(N(C)C)n2)CCCC3)CC1` [compound 536, 3-(2-chloro-6-fluorophenyl)-N-(cis-4-{[4-(dimethylamino)-5,6,7,8-tetrahydroquinazolin-2-yl]amino}cyclohexyl)-5-methylisoxazole-4-carboxamide], the class under setting [3] is on record as 1 (Class 1: The value of percent of control at 10^−7 M was less than 40% or the value of IC50 was less than 50 nM.). On to `CCc1ccccc1NC(=O)N[C@H]1CC[C@@H](Nc2cc(N(C)C)c3ccccc3n2)CC1` [compound 2107], for which the class under setting [1] was 3 (Class 3 The value of percent of control at 10^−7 M was more than 60% or the value of IC50 was more than 200 nM.). The same measure, in the same setting: next, `Cc1cccc(NC(=S)N[C@H]2CC[C@@H](Nc3nc4c(c(N(C)C)n3)CCCC4)CC2)c1C` [compound 1779]: 3 (Class 3 The value of percent of control at 10^−7 M was more than 60% or the value of IC50 was more than 200 nM.); `CN(C)c1nc(N[C@H]2CC[C@@H](NC(=O)Nc3ccc(Br)cc3Cl)CC2)nc2c1CCCC2` [compound 1883, N-(4-bromo-2-chlorophenyl)-N′-(cis-4-{[4-(dimethylamino)-5,6,7,8-tetrahydroquinazolin-2-yl]amino}cyclohexyl)urea]: 2 (Class 2: The value of percent of control at 10^−7 M was from 40% to 60% or the value of IC′50 was from 50 nM to 200 nM.).

Consider `COc1ccc(Br)cc1CNC[C@H]1CC[C@@H](Nc2cc(N(C)C)c3ccccc3n2)CC1` [compound 1145], for which the class (activity class per percent of control at 10^-7 M or IC50) is reported as 3 (Class 3 The value of percent of control at 10^−7 M was more than 60% or the value of IC50 was more than 200 nM.). For `CN(C)c1ccnc(N[C@H]2CC[C@@H](NC(=O)CCCc3cccs3)CC2)n1` [compound 886], the class under setting [1] is 3 (Class 3 The value of percent of control at 10^−7 M was more than 60% or the value of IC50 was more than 200 nM.).

For `Cc1cc(N(C)C)nc(N[C@H]2CC[C@@H](C(=O)NCc3cccc(F)c3F)CC2)n1` [Example 2584, cis-N-(2,3-difluorobenzyl)-4-{[4-(dimethylamino)-6-methylpyrimidin-2-yl]amino}cyclohexanecarboxamide], the class is 1. Turning to `CN(C)c1ccnc(N[C@H]2CC[C@@H](NC(=O)c3ccc([N+](=O)[O-])cc3F)CC2)n1` [compound 912], under setting [1], the class is listed as 3 (Class 3 The value of percent of control at 10^−7 M was more than 60% or the value of IC50 was more than 200 nM.). On the same count and under the same terms, next, `COc1ccc(NC(=O)N[C@H]2CC[C@@H](Nc3nccc(N(C)C)n3)CC2)c(OC)c1` [compound 2231]: 3 (Class 3 The value of percent of control at 10^−7 M was more than 60% or the value of IC50 was more than 200 nM.). On to `CN(C)c1nc(N[C@H]2CC[C@@H](NC(=O)c3ccc([N+](=O)[O-])o3)CC2)nc2c1CCCC2` [compound 547], for which the class under setting [3] is given as 1 (Class 1: The value of percent of control at 10^−7 M was less than 40% or the value of IC50 was less than 50 nM.).

On to `CN(C)c1cc(N[C@H]2CC[C@@H](NC(=O)Cc3sc(-c4ccccc4)nc3-c3ccc(Cl)cc3)CC2)nc2ccccc12` [compound 761], for which the class under setting [1] was 3 (Class 3 The value of percent of control at 10^−7 M was more than 60% or the value of IC50 was more than 200 nM.). For the molecule `CN(C)c1nc(N[C@H]2CC[C@@H](NC(=O)COCc3ccccc3)CC2)nc2c1CCCC2` [compound 531, 2-(benzyloxy)-N-(cis-4-{[4-(dimethylamino)-5,6,7,8-tetrahydroquinazolin-2-yl]amino}cyclohexyl)acetamide], the class under setting [3] is given as 2 (Class 2: The value of percent of control at 10^−7 M was from 40% to 60% or the value of IC′50 was from 50 nM to 200 nM.). As for `CN(C)c1cc(N[C@H]2CC[C@@H](NC(=O)c3ccc(C(F)(F)F)cc3)CC2)nc2ccccc12` [compound 117], the class under setting [4] is listed as 3 (Class 3 The value of percent of control at 10^−7 M was more than 60% or the value of IC50 was more than 200 nM.). For the molecule `CN(C)c1nc(N[C@H]2CC[C@@H](NC(=O)Nc3ccccc3-c3ccccc3)CC2)nc2c1CCCC2` [compound 1694], the class (activity class 1-3: percent of control at 10^-7 M or IC50) is 3 (Class 3 The value of percent of control at 10^−7 M was more than 60% or the value of IC50 was more than 200 nM.).

Regarding `CCCCNC(=O)N[C@H]1CC[C@@H](Nc2nccc(N(C)C)n2)CC1` [compound 2215], under setting [1], the class was 3 (Class 3 The value of percent of control at 10^−7 M was more than 60% or the value of IC50 was more than 200 nM.).

In the case of `Cc1nc(N[C@H]2CC[C@@H](NC(=O)c3cccc(OC(C)C)c3)CC2)nc(N(C)C)c1C` [compound 2862], the class under setting [2] is on record as 1 (Class 1: The value of percent of control at 10^−7 M was less than 40% or the value of IC50 was less than 50 nM.).

As to `CN(C)c1ccnc(N[C@H]2CC[C@@H](CNC(=O)c3cc(Cl)sc3Cl)CC2)n1` [compound 428], under setting [3], the class is listed as 3 (Class 3 The value of percent of control at 10^−7 M was more than 60% or the value of IC50 was more than 200 nM.). For the molecule `CN(C)c1nc(N[C@H]2CC[C@@H](NC(=O)Nc3ccc4c(c3)C(F)(F)OC(F)(F)O4)CC2)nc2c1CCCC2` [compound 1913], the class under setting [4] is given as 3 (Class 3 The value of percent of control at 10^−7 M was more than 60% or the value of IC50 was more than 200 nM.). Take `CN(C)c1nc(N[C@H]2CC[C@@H](NC(=S)Nc3ccccc3OC(F)(F)F)CC2)nc2c1CCCC2` [compound 1968]: the class under setting [4] is 3 (Class 3 The value of percent of control at 10^−7 M was more than 60% or the value of IC50 was more than 200 nM.). `CN(C)c1nc(N[C@H]2CC[C@@H](NC(=O)Nc3ccc4c(c3)Cc3ccccc3-4)CC2)nc2c1CCCC2` [compound 1904]: under setting [4], the class is recorded as 3 (Class 3 The value of percent of control at 10^−7 M was more than 60% or the value of IC50 was more than 200 nM.). On to `Cc1cc(N(C)C)nc(NC[C@H]2CC[C@@H](NC(=O)c3ccc(C(F)(F)F)cc3)CC2)n1` [compound 2740], for which the class under setting [2] is 3 (Class 3 The value of percent of control at 10^−7 M was more than 60% or the value of IC50 was more than 200 nM.). In the case of `COc1ccc(NC(=O)N[C@H]2CC[C@@H](Nc3nc4c(c(N(C)C)n3)CCCC4)CC2)c([N+](=O)[O-])c1` [compound 1893], the class under setting [1] was 3 (Class 3 The value of percent of control at 10^−7 M was more than 60% or the value of IC50 was more than 200 nM.).
